Here are results for one molecule from ChEMBL document CHEMBL1201862, “PubChem BioAssay data set” (2004).

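How tested: cells in 96-well plates exposed to compound for 48 hours at five concentrations. The concentration for 50% growth inhibition is given as GI50.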 Activity calls are given as the source filed them. Cut-off read from the data, not from the text of the source: active = GI50 up to about 1.1 µM and inactive = higher.

Test in all cases: DTP human tumour cell line panel, 48 h
Assay [1] deals with 786-0.
Assay [2] has as its system A498.
Assay [3] deals with A549.
Assay [4] deals with ACHN.
For assay [5], the system named is CAKI-1.
Assay [6] concerns COLO 205.
In assay [7] the test system is HCT-15.
Assay [8] concerns HOP-92.
Assay [9] relates to K562.
Assay [10] concerns KM12.
Assay [11] deals with NCI-H460.
For assay [12], the system named is NCI/ADR-RES.
The test system of assay [13] is OVCAR-3.
Assay [14] has as its system OVCAR-4.
Assay [15] deals with OVCAR-5.
For assay [16], the system named is SF-295.
Assay [17] deals with SK-MEL-28.
Assay [18] has as its system SK-OV-3.
In assay [19] the test system is U-251.
Assay [20] deals with UO-31.

One may read the GI50 as the concentration giving 50% growth inhibition. Take `CCOC(=O)C(SCCO)C(C(=O)OCC)n1ccc(N)nc1=O` (stereo not given): the GI50 in assay [1], in assay [2], in [3], in [4], in [5] and in assay [6] was > 100 µM (inactive) each time. In addition, the GI50 in assay [7] is above 100 µM; in [8], > 100 µM (inactive); in assay [9], > 100 µM (inactive); in [10], > 100 µM (inactive); in [11], > 100 µM (inactive); in assay [12], > 100 µM (inactive). In addition, the GI50 in [13], in assay [14], in [15], in assay [16], in assay [17] and in assay [18] was > 100 µM (inactive) throughout. In addition, the GI50 in assay [19] and in [20] was > 100 µM (inactive) throughout.
